From patent publication US20180327367A1, “MACROCYCLIC BROAD SPECTRUM ANTIBIOTICS” (priority 2015, published 2018) come the findings set out here.

Assay [1] has as its system Methicillin Resistant Staphylococcus aureus strain USA 300, NRS384. The experiment in a line: Minimum inhibitory concentration, broth micro-dilution (CLSI), S. aureus. Type of assay: cell-based. To be noted: Staphylococcus aureus, MRSA / NRS 384 / USA300, 22 h, 35° C., 22 hours. The essentials:
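Colonies grown 20 hours at 35° C were suspended in cation-adjusted Mueller Hinton Broth with 0.002% Tween-80. Cells were then added to 2-fold compound dilutions starting at 4 or 0.5 μg/mL, at OD600 0.0005.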
A general note: Dilution methods test growth across graded concentrations, often in twofold steps.

The test system of assay [2] is Escherichia coli MC4100 harboring the IMP4213 (E. coli IMP). The experiment in a line: microbe, parasite or virus in culture. In kind it is cell-based. To be noted: Escherichia coli, 22 h, read-out: MIC (μg/mL) E. coli IMP, E. coli MC4100 IMP4213, increased outer-membrane permeability; 35° C., 22 hours. An outline of the steps:
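Broth micro-dilution per CLSI in cation-adjusted Mueller Hinton Broth with 0.002% Tween-80; E. coli MC4100 carries IMP4213, raising outer-membrane permeability. Compounds tested as 2-fold serial dilutions (10 concentrations) from 4 μg/mL (protocol 2) or 0.5 μg/mL (protocol 3); inoculum OD600 0.0005, 35° C for 22 hours.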

Assay [3] has as its system Escherichia coli ATCC 25922. The experiment in a line: Minimum inhibitory concentration, broth micro-dilution (CLSI), E. coli. In kind it is cell-based. The following applies: Escherichia coli, ATCC25922, 22 h, 35° C., 22 hours.
Assay [4] deals with T1, SpsB (Staphylococcus aureus signal peptidase) (Staphylococcus aureus, UniProt P0A070).
T1 construct: This assay uses a suspension of Staphylococcus aureus cells as a source of SpsB instead of recombinant SpsB protein; endogenous in cells; host or cells: S. aureus, USA300 background, overexpressing SpsB (whole-cell suspension from frozen pellets)
The experiment in a line: cell-based. In kind it is biochemical. To be noted: SpsB IC50, whole-cell S. aureus (USA300 background, overexpressing SpsB) as SpsB source; fluorogenic peptide substrate, kinetic read 30 min. The essentials: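 Whole S. aureus cells (USA300, overexpressing SpsB) in PBS with MgCl2, CaCl2 and 0.1% Tween-80 served as enzyme source, mixed with 20 μM stock of (Dabcyl)βAla-KPAKAAE(Edans) substrate before use. Fluorescence (ex 340/em 490 nm) read kinetically over 30 min. IC50 from reaction rate versus 11-point inhibitor concentration.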

Setting [5] is: MRSA USA 300 NRS384, read-out: MIC (μg/mL) S. aureus.
Setting [6] is: E. coli ATCC 25922, read-out: MIC (μg/mL) E. coli.

Values after ≈ are worked out from the molar mass of the structure shown. Where two headings read alike, the source gives them in different places. Some results are limits rather than exact numbers.

T1 sequence (P0A070 whole entry): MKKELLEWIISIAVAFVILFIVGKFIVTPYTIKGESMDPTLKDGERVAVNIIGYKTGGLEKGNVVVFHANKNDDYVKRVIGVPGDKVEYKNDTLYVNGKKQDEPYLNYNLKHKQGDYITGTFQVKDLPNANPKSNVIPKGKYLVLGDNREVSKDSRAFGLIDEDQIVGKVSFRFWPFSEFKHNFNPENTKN

Turning to `CCCCCCCc1ccc(C(=O)N[C@@H](CCO)C(=O)N(C)[C@@H]2C(=O)N[C@@H](C)C(=O)N[C@H](C(=O)NCC#N)Cc3ccc(OCCN)c(c3)-c3cc2ccc3OCCN)c(C)c1` [Compound 260], the figures for the MIC in assay [1] (setting [5]), in assay [2] and in assay [3] (setting [6]) were 0.094 µg/mL (≈ 0.11 µM), 0.031 µg/mL (≈ 0.0363 µM) and 2 µg/mL (≈ 2.34 µM), respectively. Moreover, the IC50 – broadly, the concentration that gives 50% inhibition – in assay [4] is 1.1 nM.
The matching figures for `Cc1nc(-c2ccc(C(C)(C)C)cc2)ncc1C(=O)N[C@@H](CCN)C(=O)N(C)[C@@H]1C(=O)N[C@@H](C)C(=O)N[C@H](C(=O)NCC#N)Cc2ccc(OCCN)c(c2)-c2cc1ccc2OCCN` [Compound 163]: 0.031 µg/mL (≈ 0.0348 µM), 0.002 µg/mL (≈ 0.00225 µM), under 0.063 µg/mL and 0.71 nM.
As for `CCCCCCCCCC(=O)N[C@@H](CO)C(=O)N(C)[C@@H]1C(=O)N[C@@H](C)C(=O)N[C@H](C(=O)NCC#N)Cc2ccc(OCCN)c(c2)-c2cc1ccc2OCCN` [Compound 232], the MIC was 1.5 µg/mL (≈ 1.93 µM) in assay [1] (setting [5]), 0.25 µg/mL (≈ 0.321 µM) in assay [2] and over 64 µg/mL in assay [3] (setting [6]). Further, in assay [4], half-maximal inhibition (IC50) required 2.4 nM.
The like results for `CCCCCCCc1ccc(C(=O)N[C@@H](CCCN)C(=O)N(C)[C@@H]2C(=O)N[C@@H](C)C(=O)N[C@H](C(=O)NCC#N)Cc3ccc(OCCN)c(c3)-c3cc2ccc3OCCN)c(C)c1` [Compound 194] were, in that order, 0.016 µg/mL (≈ 0.0184 µM), 0.0078 µg/mL (≈ 0.00899 µM), 0.25 µg/mL (≈ 0.288 µM) and 0.83 nM.
The like results for `CCCCCCCc1cc(F)c(C(=O)N[C@@H](CCN)C(=O)N(C)[C@@H]2C(=O)N[C@@H](C)C(=O)N[C@H](C(=O)NCC#N)Cc3ccc(OCCN)c(c3)-c3cc2ccc3OCCN)c(F)c1` [Compound 190] were, in that order, 0.063 µg/mL (≈ 0.0719 µM), 0.02 µg/mL (≈ 0.0228 µM), 0.31 µg/mL (≈ 0.354 µM) and 0.7 nM.
The like results for `CCCCc1ccc(-c2cccc(C(=O)N[C@@H](CCCCN)C(=O)N(C)[C@@H]3C(=O)N[C@@H](C)C(=O)N[C@H](C(=O)NCC#N)Cc4ccc(OCCN)c(c4)-c4cc3ccc4OCCN)c2)cc1` [Compound 137] were, in that order, 0.063 µg/mL (≈ 0.0698 µM), 0.063 µg/mL (≈ 0.0698 µM), 4 µg/mL (≈ 4.43 µM) and 1.1 nM.
In the case of `Cc1cc(-c2ncc(CC(C)C)cn2)ccc1C(=O)N[C@@H](CCN)C(=O)N(C)[C@@H]1C(=O)N[C@@H](C)C(=O)N[C@H](C(=O)NCC#N)Cc2ccc(OCCN)c(c2)-c2cc1ccc2OCCN` [Compound 174], the MIC in assay [1] (setting [5]) worked out at 0.17 µg/mL (≈ 0.191 µM); in assay [2], 0.026 µg/mL (≈ 0.0292 µM); in assay [3] (setting [6]), 0.83 µg/mL (≈ 0.933 µM). Also, 0.91 nM corresponded to half-maximal inhibition in assay [4] (IC50).
The matching figures for `CCCCCCCCCCCCCC(=O)N[C@@H](CC)C(=O)N(C)[C@@H]1C(=O)N[C@@H](C)C(=O)N[C@H](C(=O)NCC#N)Cc2ccc(OCCN)c(c2)-c2cc1ccc2OCCN` [Compound 465]: 0.094 µg/mL (≈ 0.113 µM), 0.19 µg/mL (≈ 0.228 µM), 4 µg/mL (≈ 4.8 µM) and 1.6 nM.
With `C[C@@H]1NC(=O)[C@@H](N(C)C(=O)[C@H](CCN)NC(=O)/C=C/c2ccc(-c3ccc(Cl)cc3)cc2)c2ccc(OCCN)c(c2)-c2cc(ccc2OCCN)C[C@@H](C(=O)NCC#N)NC1=O` [Compound 427], the MIC stood at 0.063 µg/mL (≈ 0.0717 µM) in assay [1] (read-out: MIC (μg/mL) S. aureus, MRSA USA 300 NRS384); 0.047 µg/mL (≈ 0.0535 µM) in assay [2]; 1 µg/mL (≈ 1.14 µM) in assay [3] (read-out: MIC (μg/mL) E. coli, E. coli ATCC 25922). Moreover, the IC50 in assay [4] stood at 1.2 nM.
As to `CCCCc1ccc(-c2ccc(C(=O)N[C@@H](CCCCN)C(=O)N(C)[C@@H]3C(=O)N[C@@H](C)C(=O)N[C@H](C(=O)NC(C)(C)C#N)Cc4ccc(OCCN)c(c4)-c4cc3ccc4OCCN)cc2)cc1` [Compound 496], the MIC in assay [1] (setting [5]) is 3 µg/mL (≈ 3.23 µM); in assay [2] it was 0.5 µg/mL (≈ 0.538 µM); in assay [3] (setting [6]) it was 16 µg/mL (≈ 17.2 µM). In assay [4], the midpoint of inhibition, the IC50, lay at 17 nM.
The matching figures for `CCCCCCCC(=O)c1ccc(C(=O)N[C@@H](CCN)C(=O)N(C)[C@@H]2C(=O)N[C@@H](C)C(=O)N[C@H](C(=O)NCC#N)Cc3ccc(OCCN)c(c3)-c3cc2ccc3OCCN)c(Cl)c1` [Compound 413]: 0.031 µg/mL (≈ 0.0343 µM), 0.0078 µg/mL (≈ 0.00864 µM), 0.25 µg/mL (≈ 0.277 µM) and 0.88 nM.
The matching figures for `CCCCCCCCc1ccc(C(=O)N[C@@H](CCN)C(=O)N(C)[C@@H]2C(=O)N[C@@H](C)C(=O)N[C@H](C(=O)NCC#N)Cc3ccc(OCCN)c(c3)-c3cc2ccc3OCCN)c(OC)c1` [Compound 209]: 0.19 µg/mL (≈ 0.215 µM), 0.094 µg/mL (≈ 0.106 µM), 2 µg/mL (≈ 2.26 µM) and 0.92 nM.
